Reference: PubChem BioAssay (NCI)
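Growth conditions: 96-well plates. Treatment: test compound, 48 hours, 5 concentrations. Analysis: linear interpolation between bracketing concentrations; unreached endpoints set to highest concentration. GI50: concentration for 50% inhibition of growth. TGI: total growth inhibition.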

Key:
Test in all cases: inhibition of tumour cell growth, NCI panel, 48 h
OVCAR-5 ovarian = system: OVCAR-5 ovarian
MCF7 breast = system: MCF7 breast
U251 CNS = system: U251 CNS
SR leukemia = system: SR leukemia
UO-31 renal = system: UO-31 renal
SK-MEL-2 melanoma = system: SK-MEL-2 melanoma
SF-539 CNS = system: SF-539 CNS
HL-60(TB) leukemia = system: HL-60(TB) leukemia
A498 renal = system: A498 renal
EKVX NSCLC = system: EKVX NSCLC
MOLT-4 leukemia = system: MOLT-4 leukemia
MDA-MB-435 = system: MDA-MB-435
OVCAR-3 ovarian = system: OVCAR-3 ovarian
NCI-H460 lung = system: NCI-H460 lung
SF-268 CNS = system: SF-268 CNS
SNB-19 CNS = system: SNB-19 CNS
HCT-15 colon = system: HCT-15 colon
CAKI-1 renal = system: CAKI-1 renal
UACC-62 melanoma = system: UACC-62 melanoma
SW-620 colon = system: SW-620 colon
K-562 leukemia = system: K-562 leukemia
786-0 renal = system: 786-0 renal
PC-3 prostate = system: PC-3 prostate
NCI-H522 lung = system: NCI-H522 lung
SNB-75 CNS = system: SNB-75 CNS
OVCAR-4 ovarian = system: OVCAR-4 ovarian
IGROV1 ovarian = system: IGROV1 ovarian
ACHN renal = system: ACHN renal
HCC-2998 colon = system: HCC-2998 colon
NCI/ADR-RES ovarian = system: NCI/ADR-RES ovarian
SK-OV-3 ovarian = system: SK-OV-3 ovarian
UACC-257 melanoma = system: UACC-257 melanoma
NCI-H23 lung = system: NCI-H23 lung
T-47D breast = system: T-47D breast
MDA-MB-231 breast = system: MDA-MB-231 breast
A549 NSCLC = system: A549 NSCLC
TK-10 renal = system: TK-10 renal
MALME-3M melanoma = system: MALME-3M melanoma
HCT-116 colon = system: HCT-116 colon
DU-145 prostate = system: DU-145 prostate
SN12C renal = system: SN12C renal
LOX IMVI melanoma = system: LOX IMVI melanoma
SF-295 CNS = system: SF-295 CNS
HOP-62 NSCLC = system: HOP-62 NSCLC
COLO 205 colon = system: COLO 205 colon
HS 578T breast = system: HS 578T breast
NCI-H226 lung = system: NCI-H226 lung
RXF 393 renal = system: RXF 393 renal
RPMI-8226 leukemia = system: RPMI-8226 leukemia
HOP-92 NSCLC = system: HOP-92 NSCLC
OVCAR-8 ovarian = system: OVCAR-8 ovarian
M14 melanoma = system: M14 melanoma
SK-MEL-28 melanoma = system: SK-MEL-28 melanoma
CCRF-CEM leukemia = system: CCRF-CEM leukemia
SK-MEL-5 melanoma = system: SK-MEL-5 melanoma
HT29 colon = system: HT29 colon
BT-549 breast = system: BT-549 breast
KM12 colon = system: KM12 colon

Cc1c2cnccc2c(C)c2c1c1cc(CO)ccc1n2C
GI50 (OVCAR-5 ovarian): 244 nM
TGI (OVCAR-5 ovarian): 1180 nM
GI50 (MCF7 breast): 203 nM
TGI (MCF7 breast): 1370 nM
GI50 (U251 CNS): 298 nM
TGI (U251 CNS): 1630 nM
GI50 (SR leukemia): 75.2 nM
GI50 (UO-31 renal): 255 nM
TGI (UO-31 renal): 1910 nM
GI50 (SK-MEL-2 melanoma): 455 nM
TGI (SK-MEL-2 melanoma): 2010 nM
GI50 (SF-539 CNS): 343 nM
TGI (SF-539 CNS): 1540 nM
GI50 (HL-60(TB) leukemia): 408 nM
TGI (HL-60(TB) leukemia): 2100 nM
GI50 (A498 renal): 30.5 nM
TGI (A498 renal): 169 nM
GI50 (EKVX NSCLC): 325 nM
TGI (EKVX NSCLC): 1290 nM
GI50 (MOLT-4 leukemia): 286 nM
TGI (MOLT-4 leukemia): 2380 nM
GI50 (MDA-MB-435): 349 nM
TGI (MDA-MB-435): 1390 nM
GI50 (OVCAR-3 ovarian): 295 nM
TGI (OVCAR-3 ovarian): 1420 nM
GI50 (NCI-H460 lung): 149 nM
TGI (NCI-H460 lung): 571 nM
GI50 (SF-268 CNS): 268 nM
TGI (SF-268 CNS): 1690 nM
GI50 (SNB-19 CNS): 299 nM
TGI (SNB-19 CNS): 2370 nM
GI50 (HCT-15 colon): 217 nM
TGI (HCT-15 colon): 1310 nM
GI50 (CAKI-1 renal): 163 nM
TGI (CAKI-1 renal): 1080 nM
GI50 (UACC-62 melanoma): 232 nM
TGI (UACC-62 melanoma): 1030 nM
GI50 (SW-620 colon): 116 nM
TGI (SW-620 colon): 1390 nM
GI50 (K-562 leukemia): 264 nM
TGI (K-562 leukemia): 1680 nM
GI50 (786-0 renal): 302 nM
TGI (786-0 renal): 2660 nM
GI50 (PC-3 prostate): 367 nM
TGI (PC-3 prostate): 2140 nM
GI50 (NCI-H522 lung): 350 nM
TGI (NCI-H522 lung): 1910 nM
GI50 (SNB-75 CNS): 434 nM
TGI (SNB-75 CNS): 1700 nM
GI50 (OVCAR-4 ovarian): 299 nM
TGI (OVCAR-4 ovarian): 1200 nM
GI50 (IGROV1 ovarian): 130 nM
TGI (IGROV1 ovarian): 1220 nM
GI50 (ACHN renal): 66.5 nM
TGI (ACHN renal): 1160 nM
GI50 (HCC-2998 colon): 465 nM
TGI (HCC-2998 colon): 1930 nM
GI50 (NCI/ADR-RES ovarian): 187 nM
TGI (NCI/ADR-RES ovarian): 1930 nM
GI50 (SK-OV-3 ovarian): 324 nM
TGI (SK-OV-3 ovarian): 1350 nM
GI50 (UACC-257 melanoma): 292 nM
TGI (UACC-257 melanoma): 1680 nM
GI50 (NCI-H23 lung): 273 nM
TGI (NCI-H23 lung): 1340 nM
GI50 (T-47D breast): 275 nM
TGI (T-47D breast): 3140 nM
GI50 (MDA-MB-231 breast): 348 nM
TGI (MDA-MB-231 breast): 1790 nM
GI50 (A549 NSCLC): 330 nM
TGI (A549 NSCLC): 2070 nM
GI50 (TK-10 renal): 553 nM
TGI (TK-10 renal): 4150 nM
GI50 (MALME-3M melanoma): 294 nM
TGI (MALME-3M melanoma): 1180 nM
GI50 (HCT-116 colon): 45.4 nM
TGI (HCT-116 colon): 651 nM
GI50 (DU-145 prostate): 288 nM
TGI (DU-145 prostate): 1530 nM
GI50 (SN12C renal): 187 nM
TGI (SN12C renal): 1650 nM
GI50 (LOX IMVI melanoma): 255 nM
TGI (LOX IMVI melanoma): 1210 nM
GI50 (SF-295 CNS): 316 nM
TGI (SF-295 CNS): 1660 nM
GI50 (HOP-62 NSCLC): 211 nM
TGI (HOP-62 NSCLC): 2330 nM
GI50 (COLO 205 colon): 258 nM
TGI (COLO 205 colon): 1260 nM
GI50 (HS 578T breast): 521 nM
TGI (HS 578T breast): 3130 nM
GI50 (NCI-H226 lung): 109 nM
TGI (NCI-H226 lung): 570 nM
GI50 (RXF 393 renal): 209 nM
TGI (RXF 393 renal): 1040 nM
GI50 (RPMI-8226 leukemia): 260 nM
TGI (RPMI-8226 leukemia): 1380 nM
GI50 (HOP-92 NSCLC): 382 nM
TGI (HOP-92 NSCLC): 2630 nM
GI50 (OVCAR-8 ovarian): 178 nM
TGI (OVCAR-8 ovarian): 2450 nM
GI50 (M14 melanoma): 298 nM
TGI (M14 melanoma): 1220 nM
GI50 (SK-MEL-28 melanoma): 384 nM
TGI (SK-MEL-28 melanoma): 1560 nM
GI50 (CCRF-CEM leukemia): 328 nM
TGI (CCRF-CEM leukemia): 2610 nM
GI50 (SK-MEL-5 melanoma): 425 nM
TGI (SK-MEL-5 melanoma): 1580 nM
GI50 (HT29 colon): 257 nM
TGI (HT29 colon): 2730 nM
GI50 (BT-549 breast): 927 nM
TGI (BT-549 breast): 2280 nM
GI50 (KM12 colon): 303 nM
TGI (KM12 colon): 1820 nM
